Key:
[1] = In vitro plasma half-life of drug; type: in vitro ADME, SD rats; conditions: plasma (heparin sodium); SD rat plasma, 37° C.
Protocol: Preparation of plasma: after the SD rats were fasted and kept with water for 12 h, blood was collected through orbital venous plexus. The freshly collected blood was added into a centrifuge tube containing heparin sodium and centrifuged at 5000 rpm for 10 min at 4° C. The supernatant was slowly pipetted and subpackaged. Finally, the collected SD rat plasma was sealed, marked, and stored at −20° C. for later use.
Preparation of target compound sample: the target compound was precisely weighed by an analytical balance and prepared into a stock solution at a concentration of 2 mg/mL (solvent: Vacetone:VTween 80:Vnormal saline=1:1:3) for later use.
Determination of in vitro half-life of target compound sample: 20 μL of test compound stock solution and 80 μL of rat plasma were mixed uniformly. Nine parallel ep tubes were taken, marked as corresponding test tubes of 0 min, 1 min, 2 min, 3 min, 5 min, 10 min, 15 min, 20 min, and 30 min, respectively, and placed in a water bath at 37° C. for incubation for 0 min, 1 min, 2 min, 3 min, 5 min, 10 min, 15 min, 20 min, and 30 min, respectively. 50 μL of mixed solution were taken from the corresponding ep tube at each time point, and […] of acetonitrile was added for precipitating protein. The mixture was vortexed for 10 min using a mixer and centrifuged at 12000 rpm for 15 min. Then, the supernatant was centrifuged at 12000 rpm for 10 min. The optimal detection method for the target compound in the MRM mode was determined using Intellistat software in UPLC-MS/MS, the peak area of the corresponding mass spectrum was integrated, and the plasma half-life of the compound was calculated.

SD rats [2] = test: Induction of anesthesia in rats by continuous infusion of drug for 20 min; type: in vivo; conditions: initial dose 20 mg/kg bolus, maintenance dose 0.2 (mg/kg)/min for 20 min, after infusion completed
Protocol: SD rats (male, 200-280 g) were randomly grouped and subjected to administration of an initial dose by rapid bolus via the tail vein, followed by a continuous infusion with a maintenance dose for 20 min.
After the infusion was completed, the duration of the righting reflex and the time from wake-up to recovery in rats were recorded.

[3] = system: GABA-activated Cl− current (GABAA receptor) in HEK 293T cells; test: Effect of drugs on GABA-activated current in cells by cell patch clamp; type: cell-based; conditions: for EC50: read-out: Positive enhancement EC50 (μM) for 2 μM GABA-induced current, −60 mV; for Enhancement percentage Emax for 2 μM GABA current (within 3-30 μM): −60 mV, corresponding concentration 20 μM
Protocol: Test compounds were dissolved at various concentrations in an extracellular buffer (140 mM NaCl, 4.7 mM KCl, 10 mM HEPES, 2 mM CaCl2), 10 mM glucose, 1 mM MgCl2, pH 7.4). HEK 293T cells were seeded on glass coverslips and cultured in DMEM media at 37° C. with 5% CO2 for 24 h. GABA Cl^− current was subjected to whole cell recording using an HEKA EPC 10USB patch clamp amplifier. 2 μM GABA was used for exciting Cl^− current, with the membrane potential clamped at −60 mV. The cells were treated with the test compound and 2 μM GABA simultaneously, and the induction effect on and Emax of Cl^− current in the same cell were recorded.
Maximum enhancement percentage Emax for 2 μM GABA current and corresponding concentration (μM): 100% for normal humans. The greater the percentage, the lower the corresponding concentration, and the greater the depth of anesthesia.

KM mice = test: Test for drug-induced disappearance of righting reflex in mice; type: in vivo; conditions: single rapid bolus via tail vein
In short: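 Female KM mice (18–25 g), randomly grouped, given a single rapid bolus via tail vein. Latency (administration to loss of righting reflex) and duration (loss to recovery) recorded.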

SD rats [4] = test: Test for drug-induced disappearance of righting reflex in rats; type: in vivo; conditions: single rapid bolus via tail vein
Source text: In anesthetic drug experiments, latency generally refers to the time from the start of administration to the loss of consciousness of the subject. The shorter latency is preferred, indicating a rapid onset of action after administration. The duration of anesthesia generally refers to the duration of time from the loss of consciousness to the restoration of consciousness of the subject. The duration of the drug will vary from animal model to animal species. Too long anesthesia may produce adverse cardiovascular and respiratory responses, such as adverse neurological effects to the subject, including sleepiness and dizziness; meanwhile, too short duration of anesthesia may affect the anesthesia effect, causing problems such as increase of anesthesia dosage during the operation.
SD rats (male, 200-280 g) were randomly grouped and subjected to a single administration by rapid bolus via the tail vein. The latency and duration of righting reflex in the rats were recorded.

hCMEC/D3 cells = test: Rate of drug passing through in vitro blood-brain barrier (Transwell); type: in vitro ADME; conditions: hCMEC/D3 monolayer, compound 0.1 mg/mL
Protocol: A Transwell device (pore size: 5.0 μm) was placed in a 24-well cell culture well; then hCMEC/D3 cells at 1×10^5 cells/mL were transferred to the upper microwells of Transwell at 150 μL/well, and cell culture medium was added to the lower microwells. After the bottom was covered by a single layer of the cells, the medium in the wells was replaced with EBM-2 complete medium containing 1% FBS, and the cells were cultured in a CO2 incubator for 10 days until a fully dense single layer of the cells was formed. When a fully dense single layer of the cells was formed, the compound at 0.1 mg/mL was added to the lower medium, and after 5 min, the concentration of the compound in the upper medium was measured to calculate the permeability:
Pcompound%=Cupper compound/Clower compound×100%

| SMILES | half-life at 0.4 mg/mL [1] [s] | Duration of anesthesia (SD rats [2]) [min] | Time from wake-up to recovery (SD rats [2]) [min] | EC50 [3] [µM] | Enhancement percentage Emax for 2 μM GABA current (within 3-30 μM) [3] | Duration (KM mice; 60 mg/kg) [min] | Latency (KM mice; 60 mg/kg) [min] | Latency (SD rats [4]) [min] | In vitro blood-brain barrier, compound permeability at 5 min (hCMEC/D3 cells) [%] | Duration (KM mice; 30 mg/kg) [min] | Latency (KM mice; 30 mg/kg) [min] |
| --- | --- | --- | --- | --- | --- | --- | --- | --- | --- | --- | --- |
| COC(=O)CC[C@@H]1N=C(c2ccccc2Cl)c2cc(Cl)ccc2-n2c(SCCN)nnc21 [Compound 35, methyl (S)-3-(8-chloro-6-(2-chlorophenyl)-1-((2-aminoethyl)thio)-4H-benzo[f][1,2,4]triazolo[4,3-a][1,4]diazepin-4-yl)propionate] | 12.6 | 51.3 | 33.8 | 0.36 | 318% (20 μM) | 40.26 | 0.18 | 0.25 | 84.6 | – | – |
| COC(=O)CC[C@@H]1N=C(c2ccccc2Cl)c2cc(Br)ccc2-n2c(SCCN)nnc21 [Compound 36, methyl (S)-3-(8-bromo-6-(2-chlorophenyl)-1-((2-aminoethyl)thio)-4H-benzo[f][1,2,4]triazolo[4,3-a][1,4]diazepin-4-yl)propionate] | 34.2 | 9.37 | 17.5 | 0.58 | 227% (20 μM) | 8.82 | 0.34 | 0.28 | 71.6 | – | – |
| COC(=O)CC[C@@H]1N=C(c2ccccc2Cl)c2cc(Br)ccc2-n2c(SC(C)=O)nnc21 [Compound 39, methyl (S)-3-(8-bromo-6-(2-chlorophenyl)-1-(acetylthio)-4H-benzo[f][1,2,4]triazolo[4,3-a][1,4]diazepin-4-yl)propionate] | 25.8 | 7.86 | 11.2 | 0.88 | 272% (20 μM) | 9.67 | 0.19 | 0.38 | 82.6 | – | – |
| COC(=O)CC[C@@H]1N=C(c2ccccc2F)c2cc(Br)ccc2-n2c(SCCN3CCOCC3)nnc21 [Compound 52, methyl (S)-3-(8-bromo-6-(2-fluorophenyl)-1-((2-morpholinoethyl)thio)-4H-benzo[f][1,2,4]triazolo[4,3-a][1,4]diazepin-4-yl)propionate] | 21.6 | 6.25 | 16.2 | 0.47 | 293% (20 μM) | 7.22 | 0.94 | 0.33 | 80.1 | 5.38 | 1.3 |
| COC(=O)CC[C@@H]1N=C(c2ccccc2F)c2cc([N+](=O)[O-])ccc2-n2c(SCCN3CCOCC3)nnc21 [Compound 53, methyl (S)-3-(8-nitro-6-(2-fluorophenyl)-1-((2-morpholinoethyl)thio)-4H-benzo[f][1,2,4]triazolo[4,3-a][1,4]diazepin-4-yl)propionate] | 19.8 | 4.17 | 13.5 | 0.53 | 285% (20 μM) | 9.98 | 0.42 | 0.18 | 69.9 | – | – |
| COC(=O)CC[C@@H]1N=C(c2ccccc2F)c2cc([N+](=O)[O-])ccc2-n2c(SCCCN(C)C)nnc21 [Compound 59, methyl (S)-3-(8-nitro-1-((3-(dimethylamino)propyl)thio)-6-(2-fluorophenyl)-4H-benzo[f][1,2,4]triazolo[4,3-a][1,4]diazepin-4-yl)propionate] | 15 | 4.89 | 31.3 | 0.79 | 252% (20 μM) | 9.62 | 0.37 | 0.22 | 75.7 | – | – |
